Data: ChEMBL document CHEMBL1132402, “Conformations of trypsin-bound amidine inhibitors of blood coagulant factor Xa by double REDOR NMR and MD simulations” (J Med Chem, 1999)

Experiments:
Serine protease 1 = biological target: T1, Serine protease 1 (Bos taurus, UniProt P00760); test: Inhibitory constant against trypsin
T1 sequence (P00760 whole entry): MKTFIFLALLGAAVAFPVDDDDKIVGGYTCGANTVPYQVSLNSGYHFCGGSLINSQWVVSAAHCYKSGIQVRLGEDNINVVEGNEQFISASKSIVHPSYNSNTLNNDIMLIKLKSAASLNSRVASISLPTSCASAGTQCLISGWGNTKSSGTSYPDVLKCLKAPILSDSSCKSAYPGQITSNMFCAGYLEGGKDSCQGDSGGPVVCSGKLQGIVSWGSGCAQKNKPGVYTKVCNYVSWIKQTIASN

Coagulation factor X = Coagulation factor X (Homo sapiens, UniProt P00742); test: Inhibitory constant against Coagulation factor Xa (factor Xa); parameters: species or system Bos taurus
Chain of Coagulation factor X (P00742 41-179 limits assumed): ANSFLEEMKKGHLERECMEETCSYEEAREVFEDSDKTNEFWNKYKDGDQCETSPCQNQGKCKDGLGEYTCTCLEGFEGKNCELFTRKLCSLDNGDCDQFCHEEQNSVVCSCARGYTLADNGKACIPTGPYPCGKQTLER
Chain of Coagulation factor X (P00742 235-488 limits assumed): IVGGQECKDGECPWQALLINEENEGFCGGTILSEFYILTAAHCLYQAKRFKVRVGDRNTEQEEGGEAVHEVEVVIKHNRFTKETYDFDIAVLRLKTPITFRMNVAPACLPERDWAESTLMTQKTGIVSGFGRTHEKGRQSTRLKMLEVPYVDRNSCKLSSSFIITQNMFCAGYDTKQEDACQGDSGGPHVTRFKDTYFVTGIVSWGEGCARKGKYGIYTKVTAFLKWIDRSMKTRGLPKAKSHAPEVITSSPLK

Row | SMILES | Ki (Serine protease 1) [nM] | Ki (Coagulation factor X) [nM]
1 | Cc1c(F)c(Oc2cccc(C(=N)N)c2)cc(Oc2cccc(C(=N)N)c2)c1F | 740 | 12
2 | Cc1c(F)c(Oc2cccc(CN)c2)cc(Oc2cccc(C(=N)N)c2)c1F | 2900 | 1400
